According to patent US6617117B1, “MAP kinases: polypeptides, polynucleotides and uses thereof” (Medical Research Council, priority 1996, dated 2003):

Experiments:
[1] = molecular target: T1, SAPK3 (GST-SAPK3) (Rattus norvegicus, UniProt Q63538); assay: Effect of SB 203580 on SKK3-activated SAPK3 (FIG. 19); type: biochemical; conditions: even at a concentration of 0.1 mM; activated in vitro with purified SKK3
T1 construct: made in house; host or cells: E. coli BL21 (DE3)
T1 sequence (Q63538 1-367): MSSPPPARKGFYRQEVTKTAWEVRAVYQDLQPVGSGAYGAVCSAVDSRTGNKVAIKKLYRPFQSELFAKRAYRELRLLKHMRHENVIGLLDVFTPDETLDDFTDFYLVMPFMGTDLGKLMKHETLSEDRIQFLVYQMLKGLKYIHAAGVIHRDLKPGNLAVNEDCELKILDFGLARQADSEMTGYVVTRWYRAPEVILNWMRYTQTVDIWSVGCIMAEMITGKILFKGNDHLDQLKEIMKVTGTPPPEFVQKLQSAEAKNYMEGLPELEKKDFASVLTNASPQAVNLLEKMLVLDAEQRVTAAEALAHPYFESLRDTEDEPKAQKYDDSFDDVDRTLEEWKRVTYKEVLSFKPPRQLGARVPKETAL
Experimental: (§1) Protein kinase assays. SAPK3 was assayed routinely by the phosphorylation of MBP. SAPK3 (0.5 or 1 μM) in 40 μl of 25 mM Tris/HCl pH 7.5, 0.1 mM EGTA, 0.1 mM sodium orthovanadate, 1 μM PKI and 0.33 mg/ml MBP was incubated for 3 min at 30° C. before initiating the reaction with 10 μl of 50 mM magnesium acetate-0.5 mM [γ-^32P]ATP. After 20 min at 30° C. 40 μl aliquots were withdrawn, spotted on to 1.5×1.5 cm squares of Whatman P81 phosphocellulose paper and immersed in 75 mM phosphoric acid. After washing and drying the papers (Alessi et al, 1995b), ^32P radioactivity incorporated into MBP was measured. One unit of activity was that amount of enzyme which incorporated 1 nmol of phosphate into MBP in 1 min.

[2] = system: MAPKAP-K3; conditions: every mammalian cell so far examined; cited from earlier work
[3] = molecular target: T2, SAPK4 (Homo sapiens, UniProt O15264); assay: Inhibition of SAPK4, MBP phosphorylation (FIG. 9); type: biochemical; parameters: made in house; host or cells: E. coli BL21(DE3)
T2 sequence (O15264 1-365): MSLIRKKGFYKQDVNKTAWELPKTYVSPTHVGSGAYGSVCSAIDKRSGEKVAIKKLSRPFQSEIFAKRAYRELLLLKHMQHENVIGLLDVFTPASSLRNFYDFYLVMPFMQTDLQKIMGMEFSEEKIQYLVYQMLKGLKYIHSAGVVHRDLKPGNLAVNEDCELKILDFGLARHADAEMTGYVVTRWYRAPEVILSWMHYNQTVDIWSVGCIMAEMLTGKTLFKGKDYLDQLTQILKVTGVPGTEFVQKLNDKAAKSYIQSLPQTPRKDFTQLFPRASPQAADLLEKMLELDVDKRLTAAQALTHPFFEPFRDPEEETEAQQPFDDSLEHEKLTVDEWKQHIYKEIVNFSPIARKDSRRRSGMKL
Experimental: SAPK4 is assayed routinely by the phosphorylation of MBP. […] After washing and drying the papers (Alessi et al, 1995 Meth. Enzymol. 255, 279-290) ^32P radioactivity incorporated into MBP is measured.

[4] = system: MAPKAP-K2; conditions: every mammalian cell so far examined; cited from earlier work
[5] = molecular target: T3, human SAPK3 (Homo sapiens, UniProt P53778); assay: Inhibition of SAPK3, MBP phosphorylation (FIG. 9); type: biochemical
T3 construct: made in house; host or cells: E. coli BL21(DE3)
T3 sequence (P53778 1-367): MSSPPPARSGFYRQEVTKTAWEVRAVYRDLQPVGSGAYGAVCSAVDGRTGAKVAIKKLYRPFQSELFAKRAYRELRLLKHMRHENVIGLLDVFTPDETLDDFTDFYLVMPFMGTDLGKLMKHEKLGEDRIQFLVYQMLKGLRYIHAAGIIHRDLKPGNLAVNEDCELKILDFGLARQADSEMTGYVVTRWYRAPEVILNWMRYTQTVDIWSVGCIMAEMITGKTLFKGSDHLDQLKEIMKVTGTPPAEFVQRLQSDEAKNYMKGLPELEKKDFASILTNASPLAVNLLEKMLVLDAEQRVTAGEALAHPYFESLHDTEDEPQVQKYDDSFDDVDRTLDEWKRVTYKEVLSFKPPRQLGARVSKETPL
Experimental: SAPK4, SAPK2a and SAPK2b were assayed routinely by the phosphorylation of MBP, exactly as described for SAPK3 in Example 4 and Cuenda et al, 1997. One unit of activity was that amount of enzyme which incorporated 1 nmol of phosphate into MBP in 1 min. SAPK4 activators were assayed by their ability to activate GST-SAPK4, as described for GST-SAPK3 in Example 4 and Cuenda et al, 1997. Control experiments were carried out in which GST-SAPK4 was omitted. One unit of SAPK4 activator was that amount which increased SAPK4 activity by I U/min. […] SAPK2a activators were assayed by their ability to activate the X. laevis homologue of SAPK2a (Meier et al, 1996). Activated SAPK2a itself was measured by the activation of GST-MAPKAP-K2(46400).
as §1

[6] = dephosphorylated form, <0.1% of the activity of the phosphorylated form, data not shown

C[S+]([O-])c1ccc(-c2nc(-c3ccncc3)c(-c3ccc(F)cc3)[nH]2)cc1 (stereo not shown) [SB 203580]
Inhibition of SAPK3 [1]: not inhibited significantly | Suppression of stress- and cytokine-induced activation of MAPKAP-K3 [2]: 80-95% | Inhibition of SAPK4 ([3]; bacterially expressed SAPK4 activated by SKK3 in vitro): not inhibited | Inhibition of dephosphorylated form of SAPK4 [3, 6]: failed to inhibit | Suppression of stress- and cytokine-induced activation of MAPKAP-K2 [4]: 80-95% | Inhibition of SAPK3 ([5]; SAPK3 activated by SKK3 in vitro): not inhibited | Inhibition of dephosphorylated form of SAPK3 [5, 6]: failed to inhibit
